From patent publication US8022068B2, “Substituted piperidines as renin inhibitors” (Novartis AG, priority 2008, dated 2011) come the findings set out here.

The structures appear in SMILES notation.

In this experiment the target is T1, renin (Homo sapiens, UniProt P00797).
T1 construct: This test measures the formation of angiotensin I in human plasma; from tissue; host or cells: human plasma
T1 sequence (P00797 67-406): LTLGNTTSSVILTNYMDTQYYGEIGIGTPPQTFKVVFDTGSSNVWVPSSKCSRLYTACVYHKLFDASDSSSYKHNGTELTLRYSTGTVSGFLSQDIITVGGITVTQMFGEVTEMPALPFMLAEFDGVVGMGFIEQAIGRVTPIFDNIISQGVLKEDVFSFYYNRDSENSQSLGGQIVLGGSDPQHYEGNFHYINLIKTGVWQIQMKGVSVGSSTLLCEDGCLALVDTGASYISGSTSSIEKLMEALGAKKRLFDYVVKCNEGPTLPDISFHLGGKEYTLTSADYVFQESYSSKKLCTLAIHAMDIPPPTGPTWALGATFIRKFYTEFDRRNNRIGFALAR
Briefly: formation of angiotensin I in human plasma (Nussberger et al.), radioimmunoassay. The class given is biochemical. Particulars: angiotensin I determined by radioimmunoassay, read-out: IC50, inhibition of the formation of angiotensin I. The procedure:
The effect of renin inhibitors is detected inter alia experimentally by means of in vitro tests where the reduction in the formation of angiotensin I is measured in various systems (human plasma, purified human renin together with synthetic or natural renin substrate). The following in vitro test of Nussberger et al. (1987) J. Cardiovascular Pharmacol., Vol. 9, pp. 39-44, is used inter alia. This test measures the formation of angiotensin I in human plasma. The amount of angiotensin I formed is determined in a subsequent radioimmunoassay. The effect of inhibitors on the formation of angiotensin I is tested in this system by adding various concentrations of these substances. The IC50 is defined as the concentration of the particular inhibitor which reduces the formation of angiotensin I by 50%. The compounds of the present invention show inhibitory effects in the in vitro systems at minimal concentrations of about 10^−6 mol/l to about 10^−10 mol/l.

As to `COCCCN1CCOc2ccc(CO[C@H]3CN[C@@H](CN4CCOCC4)C[C@@H]3c3ccc(COC[C@@H](C)COC)cc3)cc21` [Example 10, 6-{(3R,4R,6R)-4-[4-((S)-3-Methoxy-2-methyl-propoxymethyl)-phenyl]-6-morpholin-4-ylmethyl-piperidin-3-yloxymethyl}-4-(3-methoxy-propyl)-3,4-dihydro-2H-benzo[1,4]oxazine], the IC50 lay within 0.1 to 10 nM. As for `COCCCN1CCOc2ccc(CO[C@H]3CN[C@@H](Cc4nncn4C)C[C@@H]3c3ccc(COC[C@@H](C)COC)cc3)cc21` [Example 8, 6-[(3R,4R,6R)-4-[4-((S)-3-Methoxy-2-methyl-propoxymethyl)-phenyl]-6-(4-methyl-4H-[1,2,4]triazol-3-ylmethyl)-piperidin-3-yloxymethyl]-4-(3-methoxy-propyl)-3,4-dihydro-2H-benzo[1,4]oxazine], the figure is 0.1 to 10 nM.

By IC50 is commonly meant the concentration needed to halve the response being measured.
